From US20050209157A1, “Short bioactive peptides and methods for their use” (priority 2001, published 2005)
Values after ≈ are worked out from the molar mass of the structure shown. Values joined by “and” are separate entries in the source; they are usually repeats but may differ in a detail not shown here. Identical values can stand only once. Like-named read-outs stand apart in the source and are kept apart here. Non-standard residues stand in square brackets, D forms with d. Residues, ends and D or L forms follow the SMILES beside them. No end group written: not given here.

Assays:
S. typhimurium 14028S = assay type: cell-based, Salmonella typhimurium; settings: Table 12
S. epidermidis C621 = assay type: cell-based, Staphylococcus epidermidis; settings: Table 13; in µg/mL
Candida albicans 105 = assay type: cell-based; settings: Table 13; in µg/mL
[1] = system: Pseudomonas aeruginosa 100609; assay type: cell-based; settings: Table 9; in µg/mL
[2] = system: Candida glabrata ATCC15126; assay: Antimicrobial assays II, NCCLS broth microdilution MIC; assay type: cell-based; settings: Table 13; in µg/mL
[3] = system: Pseudomonas aeruginosa 105663; assay type: cell-based; settings: Table 9; in µg/mL
[4] = system: Pseudomonas aeruginosa H187; assay type: cell-based; settings: in µg/mL
P. aeruginosa H374 = assay type: cell-based, Pseudomonas aeruginosa; settings: in µg/mL
E. coli UB1005 = assay type: cell-based, Escherichia coli; settings: Table 12
S. aureus (MRSA) = assay type: cell-based, Staphylococcus aureus; settings: Table 13, strain SAP0017; in µg/mL

Compound	MIC S. typhimurium 14028S (S. typhimurium 14028S)	MIC S. epidermis C621 (S. epidermidis C621)	MIC C. albicans 105 (Candida albicans 105)	MIC P. aeruginosa Tb 100609 [1]	MIC C. glabrata ATCC15126 [2]	MIC P. aeruginosa Tb 105663 [3]	MIC P. aeruginosa H187 ([4]; Table 9)	MIC P. aeruginosa H187 ([4]; Table 12)	MIC P. aeruginosa H374 (P. aeruginosa H374; Table 9)	MIC P. aeruginosa H374 (P. aeruginosa H374; Table 12)	MIC E. coli UB1005 (E. coli UB1005)	MIC S. aureus SAP0017 (S. aureus (MRSA))
CC(C)C[C@H](NC(=O)[C@H](C)NC(=O)[C@H](CCCCN)NC(=O)[C@H](CCCCN)NC(=O)[C@H](CC(C)C)NC(=O)[C@H](C)NC(=O)[C@H](CCCCN)NC(=O)[C@H](CCCCN)NC(=O)[C@H](CC(C)C)NC(=O)[C@@H](CCCCN)NC(=O)[C@@H](CCCCN)NC(=O)[C@H](CC(C)C)NC(=O)[C@H](C)NC(=O)[C@H](CCCCN)NC(=O)[C@H](CCCCN)NC(=O)[C@H](CC(C)C)NC(=O)[C@H](C)NC(=O)[C@H](CCCCN)NC(=O)[C@H](CC(C)C)NC(=O)[C@H](C)NC(=O)[C@H](CC(C)C)NC(=O)[C@H](C)NC(=O)[C@@H](N)Cc1ccccc1)C(=O)O [P37 (19)] (H-FALALKALKKAL[dK][dK]LKKALKKAL-OH; N-terminus assumed)	8 µg/mL (≈ 3.15 µM)	4	32	16	32	16	8	8	8	8	4 µg/mL (≈ 1.58 µM)	8
CC(C)C[C@H](NC(=O)[C@H](C)NC(=O)[C@H](CC(C)C)NC(=O)[C@H](CCCCN)NC(=O)[C@H](C)NC(=O)[C@H](CC(C)C)NC(=O)[C@H](CCCCN)NC(=O)[C@H](CCCCN)NC(=O)[C@H](C)NC(=O)[C@H](CC(C)C)NC(=O)[C@H](CCCCN)NC(=O)[C@H](C)NC(=O)[C@H](CC(C)C)NC(=O)[C@H](CCCCN)NC(=O)[C@H](CCCCN)NC(=O)[C@H](C)NC(=O)[C@@H](N)C(C)C)C(N)=O [P50 (32)]	4 µg/mL (≈ 2.21 µM)	4	16	4	16	8	4	4	4	4	2 µg/mL (≈ 1.11 µM)	4
FALALKALKKLAKKLKKLAKKAL-NH2 [P25 (10)]	8 µg/mL	4	32	8	32	8	8	8	8	8	8 µg/mL	16
VALALKALKKLLKKLKKLAKKAL-NH2 [P510 (161)]	16 µg/mL	4	32	16	64	16	8	8	8	8	8 µg/mL	8
FALALKALKKLKKALKKAL-NH2 [P27 (12)]	16 µg/mL	4	16 and 32	8 and 16	16 and 32	8 and 16	8	8	8	8	8 µg/mL	8 and 16
FAKKLAKLALKLAKL-NH2 [P44 (26)]	4 µg/mL	4	8	8	16	16	8	8	8	8	1 µg/mL	8
FAKKLAKKLL-NH2 [P59 (39)]	8 µg/mL	8	32	8	16	8	8	8	8	8	8 µg/mL	8
FAKKLAKKLKKLAKKLAKKWKL-OH [P72 (48)]	8 µg/mL	4	32	8	64	8	8	8	4	4	2 µg/mL	16
CC(C)C[C@H](NC(=O)[C@H](C)NC(=O)[C@H](CC(C)C)NC(=O)[C@H](CCCCN)NC(=O)[C@H](C)NC(=O)[C@H](CC(C)C)NC(=O)[C@H](CCCCN)NC(=O)[C@H](CCCCN)NC(=O)[C@H](C)NC(=O)[C@H](CC(C)C)NC(=O)[C@H](CCCCN)NC(=O)[C@H](C)NC(=O)[C@H](CC(C)C)NC(=O)[C@H](CCCCN)NC(=O)[C@H](CCCCN)NC(=O)[C@H](C)NC(=O)[C@@H](N)Cc1ccccc1)C(N)=O [P35 (17)]	4 µg/mL (≈ 2.16 µM)	4	32	4	16	4	8	8	8	8	2 µg/mL (≈ 1.08 µM)	8
FAKLLALALKKAL-NH2 [P97 (165)]	16 µg/mL	4	16	16	16	16	16	16	8	8	8 µg/mL	8
FALKALKKLKKALKKAL-NH2 [P153 (115)]	8 µg/mL	4	16	8	16	8	8	8	4	4	8 µg/mL	16
FAKLLAKLAKKVL-NH2 [P124 (86)]	16 µg/mL	4	16	64	16	64	32	32	16	16	16 µg/mL	8
FALLKALLKKAL-NH2 [P177 (138)]	16 µg/mL	4	16	32	16	32	16	16	16	16	8 µg/mL	8
